Our source for the EC50 values is US10344019B2 (priority 2010, dated 2019).

Holding throughout (assay type): cell-based
For assay [1], the system named is HCV 1a RLuc cells (dicistronic genotype 1a H77 replicon, RLuc reporter). Description: microbe, parasite or virus in culture. Particulars: Hepatitis C virus, read-out: 1a. The procedure, abridged: (§1)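 Renilla luciferase HCV replicon cells: dicistronic 1b Con1, 1a H77 or 2a JFH-1 replicons, or a JFH-1 chimera carrying J6 NS5A (M31 present). Compound in DMSO serial dilutions, 72 h incubation, then lysis and luciferase read. EC50 by non-linear regression.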

Assay [2] deals with HCV 1b RLuc cells (dicistronic genotype 1b Con1 replicon, RLuc reporter). Briefly: microbe, parasite or virus in culture. The conditions noted are these: Hepatitis C virus, read-out: 1b (nM). In short, it runs like this: as §1
The subject of assay [3] is HCV 2a JFH-1 Rluc cells (dicistronic genotype 2a JFH-1 replicon, RLuc reporter). Briefly: microbe, parasite or virus in culture. Particulars: Hepatitis C virus, read-out: 2a JFH. The procedure, abridged: as §1
Assay [4] concerns HCV 2b Rluc cells (NS5A chimeric genotype 2a JFH-1 replicon with genotype 2b MD2b-1 NS5A gene, M31 present). Briefly: microbe, parasite or virus in culture. The conditions noted are these: Hepatitis C virus, read-out: 2b. The procedure, abridged:
(§2)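 Replicon cells stably carrying the listed RLuc-encoding dicistronic replicons were seeded and treated with DMSO serial dilutions of compound (10 mM stocks) diluted into culture medium. After 72 h, cells were lysed and Renilla luciferase activity measured. EC50 was derived by non-linear regression.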

The test system of assay [5] is HCV 3a RLuc cells (NS5A chimeric genotype 1b Con1 replicon with consensus genotype 3a NS5A gene). Description: microbe, parasite or virus in culture. Particulars: Hepatitis C virus. The procedure, abridged:
as §2

Assay [6] concerns HCV 4a Rluc cells (NS5A chimeric genotype 1b Con1 replicon with genotype 4a NS5A gene). Briefly: microbe, parasite or virus in culture. Particulars: Hepatitis C virus, read-out: 4a. The procedure, abridged:
as §2

Assay [7] has as its system HCV 2a Rluc cells (NS5A chimeric genotype 2a JFH-1 replicon with genotype 2a J6 strain NS5A gene, M31 present). Description: HCV replicon reporter assay, genotype 2a J6 (M31 present). Particulars: Hepatitis C virus, read-out: 2a J6. In short, it runs like this:
as §1
(In general: Replicon systems follow genome replication, usually without infectious particles.)

The mark [8] stands for this setting: read-out: 3a, genotype 3a replicon.

Read-outs that look alike come from different tables or passages of the source.

Regarding `COC(=O)N[C@@H](C(=O)N1CCC[C@H]1c1nc(Cl)c(-c2cc3c4c(c2)OCc2cc(-c5[nH]c([C@@H]6CCCN6C(=O)[C@H](NC(=O)OC)c6ccccc6)nc5Cl)cc(c2-4)OC3)[nH]1)c1ccccc1` [Example 421], the EC50 is 0.001 to 0.999 nM in assay [1] (genotype 1a replicon); 0.041 nM in assay [2]; 0.001 to 0.999 nM in assay [3] (genotype 2a JFH-1 replicon); 0.001 to 0.999 nM in assay [4]; 0.001 to 0.99 nM in assay [5] (setting [8]); 0.001 to 0.99 nM in assay [6]. Besides, the EC50 in assay [7] was 0.001 to 0.999 nM.

As to `CC[C@H](C)[C@H](NC(=O)OC)C(=O)N1CCC[C@H]1c1nc2ccc3cc(-c4ccc5c(ccc6nc([C@@H]7C[C@H](COC)CN7C(=O)[C@H](NC(=O)C7CC7)c7ccccc7)[nH]c65)c4)ccc3c2[nH]1` [Example 511], the EC50 is 0.001 to 0.999 nM in assay [1] (genotype 1a H77 RLuc replicon); 0.019 nM in assay [2]; 0.001 to 0.999 nM in assay [3] (genotype 2a JFH-1 RLuc replicon); 0.001 to 0.999 nM in assay [4]; 0.001 to 0.99 nM in assay [5] (read-out: 3a, genotype 3a NS5A chimeric replicon); 0.001 to 0.99 nM in assay [6]. The EC50 in assay [7] was in the range of 0.001 to 0.999 nM.

Regarding `COC(=O)N[C@H](C(=O)N[C@@H](C(=O)N1CCC[C@H]1c1ncc(-c2cc3c4c(c2)OCc2cc(-c5cnc([C@@H]6CCCN6C(=O)[C@H](NC(=O)[C@@H](NC(=O)OC)C(C)C)c6ccccc6)[nH]5)cc(c2-4)OC3)[nH]1)c1ccccc1)C(C)C` [Example 483], the EC50 in assay [1] (genotype 1a replicon) is 1 to 44 nM; in assay [2], 0.814 nM; in assay [3] (genotype 2a JFH-1 replicon), 0.001 to 0.999 nM; in assay [4], 0.001 to 0.999 nM; in assay [5] (setting [8]) it was 0.001 to 0.99 nM; in assay [6] it was 0.001 to 0.99 nM. In assay [7], the EC50 is more than 44 nM.

Consider `CC(C)CC(=O)N[C@@H](C(=O)N1CCC[C@H]1c1ncc(-c2cc3c4c(c2)OCc2cc(-c5cnc([C@@H]6CCCN6C(=O)[C@H](NC(=O)CC(C)C)c6ccccc6)[nH]5)cc(c2-4)OC3)[nH]1)c1ccccc1` [Example 481], for which the EC50 is 0.001 to 0.999 nM in assay [1] (genotype 1a replicon); 0.058 nM in assay [2]; 0.001 to 0.999 nM in assay [3] (genotype 2a JFH-1 replicon); 0.001 to 0.999 nM in assay [4]; 0.001 to 0.99 nM in assay [5] (setting [8]); 0.001 to 0.99 nM in assay [6]. In addition, the EC50 in assay [7] was in the range of 0.001 to 0.999 nM.

As for `COC(=O)N[C@H](C(=O)N1CCC[C@H]1c1nc2ccc3cc(-c4ccc5c(ccc6nc([C@@H]7C[C@H](C#N)CN7C(=O)[C@@H](NC(=O)OC)C(C)C)[nH]c65)c4)ccc3c2[nH]1)C(C)C` [Example 416], the EC50 in assay [1] (genotype 1a replicon) was 0.001 to 0.999 nM; in assay [2] it was 0.043 nM; in assay [3] (genotype 2a JFH-1 replicon), 0.001 to 0.999 nM; in assay [4] it was 1 to 44 nM; in assay [5] (setting [8]) it was 0.001 to 0.99 nM; in assay [6], 0.001 to 0.99 nM. In addition, in assay [7], the EC50 was in the range of 0.001 to 0.999 nM.

As for `COC(=O)N[C@@H](C(=O)N1[C@@H](C)CC[C@H]1c1ncc(-c2cc3c4c(c2)OCc2cc(-c5cnc([C@@H]6CC[C@H](C)N6C(=O)[C@H](NC(=O)OC)c6ccccc6)[nH]5)cc(c2-4)OC3)[nH]1)c1ccccc1` [Example 461], the EC50 in assay [1] (genotype 1a replicon) was 0.001 to 0.999 nM; in assay [2], 0.02 nM; in assay [3] (genotype 2a JFH-1 replicon), 0.001 to 0.999 nM; in assay [4], 0.001 to 0.999 nM; in assay [5] (setting [8]), 0.001 to 0.99 nM; in assay [6], 0.001 to 0.99 nM. Also, in assay [7], the EC50 was in the range of 1 to 44 nM.

As to `COC(=O)N[C@H](C(=O)N1[C@@H]2CC[C@@H](C2)[C@H]1c1ncc(-c2ccc(-c3ccc4c(ccc5nc([C@@H]6C[C@H]7C[C@H]7N6C(=O)[C@H](NC(=O)OC)c6ccccc6)[nH]c54)c3)cc2)[nH]1)C(C)C` [Example 379], the EC50 in assay [1] (genotype 1a replicon) is 0.001 to 0.999 nM; in assay [2], 0.009 nM; in assay [3] (genotype 2a JFH-1 replicon), 0.001 to 0.999 nM; in assay [4], more than 44 nM; in assay [5] (setting [8]), 0.001 to 0.99 nM; in assay [6] it was 0.001 to 0.99 nM. In addition, the EC50 in assay [7] lay within 0.001 to 0.999 nM.

For `COC[C@H]1C[C@@H](c2ncc(-c3ccc(-c4ccc5c(c4)OCc4nc([C@@H]6CCCN6C(=O)[C@@H](NC(=O)OC)C(C)C)[nH]c4-5)cc3)[nH]2)N(C(=O)[C@@H](NC(=O)OC)C(C)C)C1` [Example 458], the EC50 in assay [1] (genotype 1a replicon) is 0.001 to 0.999 nM; in assay [2], 0.085 nM; in assay [3] (genotype 2a JFH-1 replicon) it was 0.001 to 0.999 nM; in assay [4], more than 44 nM; in assay [5] (setting [8]), 1 to 4.99 nM; in assay [6], 0.001 to 0.99 nM. The EC50 in assay [7] was more than 44 nM.
